Test system: SARS-CoV-2
Test: microbe, parasite or virus in culture
Details: Severe acute respiratory syndrome coronavirus 2, Vero C1008, 48 h

SMILES | IC50 | IC50 (read-out: pIC50 (converted))
COCc1c(C(C)C)nc(C(C)C)c(/C=C/[C@@H](O)C[C@@H](O)CC(=O)O)c1-c1ccc(F)cc1 [CERIVASTATIN] | > 20 µM | > 20 µM
NCCCC[C@H](OP(=O)(O)CCCCc1ccccc1)C(=O)N1CCC[C@H]1C(=O)O [CERONAPRIL] | > 20 µM | > 20 µM
C/C=C/C/C=C/CCC(=O)[C@H]1O[C@H]1C(N)=O [CERULENIN] | > 20 µM | > 20 µM
CNC(=O)COc1ccccc1OCC(O)CNC(C)(C)C (configuration not stated) [CETAMOLOL] | > 20 µM | > 20 µM
CC[C@H]1OC(=O)[C@H](C)C(=O)[C@H](C)[C@@H](O[C@@H]2O[C@H](C)C[C@H](N(C)C)[C@H]2O)[C@](C)(OCC=Cc2cnc3ccccc3c2)C[C@@H](C)C(=O)[C@H](C)[C@H]2NC(=O)O[C@@]21C [CETHROMYCIN] | > 20 µM | > 20 µM
O=C(O)COCCN1CCN(C(c2ccccc2)c2ccc(Cl)cc2)CC1 (configuration not stated) [CETIRIZINE] | > 20 µM | > 20 µM
CCCCCCCCCCCCCCCC[N+](C)(C)C [CETRIMONIUM] | > 20 µM | > 20 µM
Cc1c(N)cccc1Cn1ccc(OCCc2cccs2)cc1=O [CG-400549] | > 20 µM | > 20 µM
CN1Cc2c(ccc3c2OCO3)C2C(O)Cc3cc4c(cc3C21)OCO4 (stereo not drawn) [CHELIDONINE (+)] | > 20 µM | > 20 µM
COc1cc(-c2ccc(/N=N/c3ccc4c(S(=O)(=O)O)cc(S(=O)(=O)O)c(N)c4c3O)c(OC)c2)ccc1/N=N/c1ccc2c(S(=O)(=O)O)cc(S(=O)(=O)O)c(N)c2c1O [CHICAGO SKY BLUE] | > 20 µM | > 20 µM
OC[C@@H](O)[C@H]1O[C@@H]2O[C@H](C(Cl)(Cl)Cl)O[C@@H]2[C@H]1O [CHLORALOSE] | > 20 µM | > 20 µM
O=C(O)CCCc1ccc(N(CCCl)CCCl)cc1 [CHLORAMBUCIL] | > 20 µM | > 20 µM
O=C1C(Cl)=C(Cl)C(=O)C(Cl)=C1Cl [CHLORANIL] | > 20 µM | > 20 µM
CN1CCN(C(c2ccccc2)c2ccc(Cl)cc2)CC1 (configuration not stated) [CHLORCYCLIZINE] | > 20 µM | > 20 µM
CCCCC(CC)C1NC(=O)N(SC(Cl)(Cl)Cl)C1=O (configuration not stated) [CHLORDANTOIN] | > 20 µM | > 20 µM
CNC1=Nc2ccc(Cl)cc2C(c2ccccc2)=[N+]([O-])C1 [CHLORDIAZEPOXIDE] | > 20 µM | > 20 µM
N=C(NCCCCCCNC(=N)NC(=N)Nc1ccc(Cl)cc1)NC(=N)Nc1ccc(Cl)cc1 [CHLORHEXIDINE] | > 20 µM | > 20 µM
Oc1ccc(Cl)c2c1CCC2 [CHLORINDANOL] | > 20 µM | > 20 µM
C[N+](C)(C)CC[N+]1(C)Cc2c(Cl)c(Cl)c(Cl)c(Cl)c2C1 [CHLORISONDAMINE] | > 20 µM | > 20 µM
CC(=O)O[C@]1(C(C)=O)CC[C@H]2[C@@H]3C=C(Cl)C4=CC(=O)CC[C@]4(C)[C@H]3CC[C@@]21C [CHLORMADINONE ACETATE] | > 20 µM | > 20 µM
CN1C(=O)CCS(=O)(=O)C1c1ccc(Cl)cc1 (configuration not stated) [CHLORMEZANONE] | > 20 µM | > 20 µM
Cc1nc2ccccc2n1Cc1ccc(Cl)cc1 [CHLORMIDAZOLE] | > 20 µM | > 20 µM
Cc1cc(O)ccc1Cl [CHLOROCRESOL] | > 20 µM | > 20 µM
O=C(/C=C/c1ccc(O)c(O)c1)O[C@@H]1C[C@](O)(C(=O)O)C[C@@H](O)[C@H]1O [CHLOROGENIC ACID] | > 20 µM | > 20 µM
Clc1cccc(N2CCNCC2)c1 [CHLOROPHENYLPIPERAZINE] | > 20 µM | > 20 µM
CN(C)CCN(Cc1ccc(Cl)cc1)c1ccccn1 [CHLOROPYRAMINE] | > 20 µM | > 20 µM

SMILES | IC50 | IC50 (read-out: pIC50 (converted))
N#Cc1c(Cl)c(Cl)c(Cl)c(C#N)c1Cl [CHLOROTHALONIL] | > 20 µM | > 20 µM
CN(C)CCN(Cc1ccc(Cl)s1)c1ccccn1 [CHLOROTHEN] | > 20 µM | > 20 µM
NS(=O)(=O)c1cc2c(cc1Cl)N=CNS2(=O)=O [CHLOROTHIAZIDE] | > 20 µM | > 20 µM
COc1ccc(C(Cl)=C(c2ccc(OC)cc2)c2ccc(OC)cc2)cc1 [CHLOROTRIANISENE] | > 20 µM | > 20 µM
Oc1c(Cl)cc(Cl)c2cccnc12 [CHLOROXINE] | > 20 µM | > 20 µM
Cc1cc(O)cc(C)c1Cl [CHLOROXYLENOL] | > 20 µM | > 20 µM
NC(=O)OCC(O)COc1ccc(Cl)cc1 (configuration not stated) [CHLORPHENESIN CARBAMATE] | > 20 µM | > 20 µM
CN(C)CCC(c1ccc(Cl)cc1)c1ccccn1 (configuration not stated) [CHLORPHENIRAMINE] | > 20 µM | > 20 µM
CC(C)(N)Cc1ccc(Cl)cc1 [CHLORPHENTERMINE] | > 20 µM | > 20 µM
CN(C)CCCN1c2ccccc2Sc2ccc(Cl)cc21 [CHLORPROMAZINE] | > 20 µM | > 20 µM
CCCNC(=O)NS(=O)(=O)c1ccc(Cl)cc1 [CHLORPROPAMIDE] | > 20 µM | > 20 µM
Cc1ccc2c(Cl)cc(Cl)c(O)c2n1 [CHLORQUINALDOL] | > 20 µM | > 20 µM
NS(=O)(=O)c1cc(C2(O)NC(=O)c3ccccc32)ccc1Cl (configuration not stated) [CHLORTHALIDONE] | > 20 µM | > 20 µM
O=C(O)c1cc(=O)c2ccccc2o1 [CHROMOCARB] | > 20 µM | > 20 µM
CCOC(=O)COc1ccc2c(C)c(CCN(CC)CC)c(=O)oc2c1 [CHROMONAR] | > 20 µM | > 20 µM
CC(C)=CC1C(CO)C1(C)C (configuration not stated) [CHRYSANTHEMYL ALCOHOL] | > 20 µM | > 20 µM
COc1cc(OC)c2c(=O)cc(-c3ccccc3)oc2c1 [CHRYSIN DIMETHYL ETHER] | > 20 µM | > 20 µM
O=c1cc(-c2ccccc2)oc2cc(O)cc(O)c12 [CHRYSIN] | > 20 µM | > 20 µM
N#CN=C(NCCCCCCOc1ccc(Cl)cc1)Nc1ccncc1 [CHS-828] | > 20 µM | > 20 µM
O=C(NOCC1CC1)c1ccc(F)c(F)c1Nc1ccc(I)cc1Cl [CI-1040] | > 20 µM | > 20 µM
Oc1cc(O)c2c(c1)O[C@H](c1ccc(O)c(O)c1)[C@@H](O)C2 [CIANIDANOL] | > 20 µM | > 20 µM
CN(C)CCCN1c2ccccc2CCc2ccc(C#N)cc21 [CIANOPRAMINE] | > 20 µM | > 20 µM
Cc1cc(C2CCCCC2)n(O)c(=O)c1 [CICLOPIROX] | > 20 µM | > 20 µM
CC(C(=O)O)c1ccc2c(c1)Cc1ccccc1-2 (configuration not stated) [CICLOPROFEN] | > 20 µM | > 20 µM
CC1(COc2ccc(CC3SC(=O)NC3=O)cc2)CCCCC1 (configuration not stated) [CIGLITAZONE] | > 20 µM | > 20 µM
CC1(C)C[C@@H]1C(=O)N/C(=C\CCCCSC[C@H](N)C(=O)O)C(=O)O [CILASTATIN] | > 20 µM | > 20 µM

SMILES | IC50 | IC50 (read-out: pIC50 (converted))
CCOC(=O)[C@H](CCc1ccccc1)N[C@H]1CCCN2CCC[C@@H](C(=O)O)N2C1=O [CILAZAPRIL] | > 20 µM | > 20 µM
COCCOC(=O)C1=C(C)NC(C)=C(C(=O)OC/C=C/c2ccccc2)C1c1cccc([N+](=O)[O-])c1 (configuration not stated) [CILNIDIPINE] | > 20 µM | > 20 µM
COc1ccc([C@]2(C#N)CC[C@@H](C(=O)O)CC2)cc1OC1CCCC1 [CILOMILAST] | > 20 µM | > 20 µM
CN(C(=O)CCCOc1ccc2[nH]c(=O)ccc2c1)C1CCCCC1 [CILOSTAMIDE] | > 20 µM | > 20 µM
O=C1CCc2cc(OCCCCc3nnnn3C3CCCCC3)ccc2N1 [CILOSTAZOL] | > 20 µM | > 20 µM
CN/C(=N\CCSCc1nc[nH]c1C)NC#N [CIMETIDINE] | > 20 µM | > 20 µM
CN(C)CCCSc1ccccc1NC(=O)/C=C/c1ccccc1 [CINANSERIN] | > 20 µM | > 20 µM
C=C[C@H]1CN2CC[C@H]1C[C@H]2[C@H](O)c1ccnc2ccccc12 [CINCHONIDINE] | > 20 µM | > 20 µM
O=C(O)c1cc(-c2ccccc2)nc2ccccc12 [CINCHOPHEN] | > 20 µM | > 20 µM
COc1cc(/C=C/C(=O)N2CCN(CC(=O)N3CCCC3)CC2)cc(OC)c1OC [CINEPAZIDE] | > 20 µM | > 20 µM
CCOc1cc(N)c([N+](=O)[O-])cc1C(=O)NC1CCN(CC2CC=CCC2)CC1 (configuration not stated) [CINITAPRIDE] | > 20 µM | > 20 µM
CCn1nc(C(=O)O)c(=O)c2cc3c(cc21)OCO3 [CINOXACIN] | > 20 µM | > 20 µM
CCNC(=O)/C=C/c1cccc(Br)c1 [CINROMIDE] | > 20 µM | > 20 µM
CCCCCC1C(=O)N2C=C(c3ccccc3)c3ccccc3N2C1=O (configuration not stated) [CINTAZONE] | > 20 µM | > 20 µM
CC(C)(Oc1ccc(C2CC2(Cl)Cl)cc1)C(=O)O (configuration not stated) [CIPROFIBRATE] | > 20 µM | > 20 µM
CN(C)[C@@H](c1cccc(O)c1)[C@H]1CCCC[C@H]1O [CIRAMADOL] | > 20 µM | > 20 µM
COc1cc(N)c(Cl)cc1C(=O)NC1CCN(CCCOc2ccc(F)cc2)CC1OC (configuration not stated) [CISAPRIDE] | > 20 µM | > 20 µM
CN(C)CCCC1(c2ccc(F)cc2)OCc2cc(C#N)ccc21 (configuration not stated) [CITALOPRAM] | > 20 µM | > 20 µM
NC(=O)C1c2ccccc2C=Cc2ccccc21 [CITENAMIDE] | > 20 µM | > 20 µM
N#Cc1ccc(/C=N/NC(N)=S)s1 [CITENAZONE] | > 20 µM | > 20 µM
CC(=O)NC1CCSC1=O (configuration not stated) [CITIOLONE] | > 20 µM | > 20 µM
COc1cc(OC)c2ccc(=O)oc2c1 [CITROPTEN] | > 20 µM | > 20 µM
CN(C)CCOC(c1ccccc1)c1ccnn1C (configuration not stated) [CIZOLIRTINE] | > 20 µM | > 20 µM
CCCCCCCCCCC(C)(C)C(=O)Nc1c(OC)cc(OC)cc1OC [CL-976] | > 20 µM | > 20 µM

Source: ChEMBL document CHEMBL4651402, “Screening of ~5500 FDA-approved drugs and clinical candidates for anti-SARS-CoV-2 activity” (2021)
